Experimental data reported in US20260137819A1 (Radionetics Oncology, Inc., priority 2022, published 2026).
Starred links: 1 amine or outer side, 2 acyl side, 3 side chain; linkers in the order of their positions; H or OH if unused. Non-standard residues stand in square brackets, D forms with d. Residues, ends and D or L forms follow the SMILES beside them. Groups on a side chain read outwards from the residue. *: point of attachment. X1 = COc1cc2c(cc1-c1cccc(N*)c1)-c1c(c(C(=O)N3CCOCC3(C)C)nn1-c1cc(Cl)cc(Cl)c1)CO2; DOTA = O=C(O)CN1CCN(CC(=O)O)CCN(CC(=O)*)CCN(CC(=O)O)CC1; Suc = O=C(CCC(=O)[*:2])[*:1]

target: T1, human follicle-stimulating hormone receptor (FSHR) (Homo sapiens, UniProt P23945); experiment: Measurement of agonist cAMP production by activation of human FSHR; type: cell-based; conditions: CHO-K1 human FSHR cells, 30 minutes at 37° C., HTRF cAMP kit; read-out: hFSHR Agonist cAMP EC50
T1 construct: host or cells: CHO-K1
T1 sequence (P23945 18-695): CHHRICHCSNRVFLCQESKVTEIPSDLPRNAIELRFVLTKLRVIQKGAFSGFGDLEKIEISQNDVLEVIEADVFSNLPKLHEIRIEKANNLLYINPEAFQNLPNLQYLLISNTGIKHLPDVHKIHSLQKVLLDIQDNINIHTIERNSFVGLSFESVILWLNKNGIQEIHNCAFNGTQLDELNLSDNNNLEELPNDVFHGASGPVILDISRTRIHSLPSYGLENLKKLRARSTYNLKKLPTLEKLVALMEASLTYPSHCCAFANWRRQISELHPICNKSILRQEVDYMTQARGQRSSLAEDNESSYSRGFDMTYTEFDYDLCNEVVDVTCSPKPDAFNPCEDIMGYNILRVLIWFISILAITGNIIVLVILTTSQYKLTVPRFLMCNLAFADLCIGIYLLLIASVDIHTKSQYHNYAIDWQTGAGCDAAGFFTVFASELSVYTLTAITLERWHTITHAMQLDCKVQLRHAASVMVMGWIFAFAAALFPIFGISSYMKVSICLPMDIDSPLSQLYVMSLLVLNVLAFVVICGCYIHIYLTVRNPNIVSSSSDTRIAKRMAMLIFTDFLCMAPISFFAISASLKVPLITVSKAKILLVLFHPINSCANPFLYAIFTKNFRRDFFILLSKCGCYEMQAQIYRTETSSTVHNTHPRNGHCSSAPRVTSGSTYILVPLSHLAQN
How it was run: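 cAMP output was measured by HTRF after 30 min at 37 °C agonist exposure (0–10,000 nM final) in stably FSHR-transfected CHO-K1 cells. Lysate cAMP was read off a standard curve and fitted to obtain half-maximal EC50.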

SMILES	EC50 [nM]
COc1cc2c(cc1-c1cccc(NC(=O)NCCNC(=O)CCOCCNC(=O)CN3CCN(CC(=O)O)CCN(CC(=O)O)CCN(CC(=O)O)CC3)c1)-c1c(c(C(=O)N3CCOCC3(C)C)nn1-c1cc(Cl)cc(Cl)c1)CO2 [Compound 10, 2,2′,2″-(10-(1-((3-(1-(3,5-dichlorophenyl)-3-(3,3-dimethylmorpholine-4-carbonyl)-7-methoxy-1,4-dihydrochromeno[4,3-c]pyrazol-8-yl)phenyl)amino)-1,6,13-trioxo-9-oxa-2,5,12-triazatetradecan-14-yl)-1,4,7,10-tetraazacyclododecane-1,4,7-triyl)triacetic acid]	< 10
COc1cc2c(cc1-c1cccc(NC(=O)CCC(=O)NCCCC[C@@H](NC(=O)[C@@H](C)NC(=O)[C@@H](CCC(=O)O)NC(=O)[C@@H](C)NC(=O)CN3CCN(CC(=O)O)CCN(CC(=O)O)CCN(CC(=O)O)CC3)C(=O)N[C@H](C)C(=O)N[C@H](CCC(=O)O)C(=O)N[C@H](C)C(N)=O)c1)-c1c(c(C(=O)N3CCOCC3(C)C)nn1-c1cc(Cl)cc(Cl)c1)CO2 [Compound 86, (4R,7R,10R,13R,16R)-4-(((R)-1-amino-1-oxopropan-2-yl)carbamoyl)-10-(4-(4((3-(1-(3,5-dichlorophenyl)-3-(3,3-dimethylmorpholine-4-carbonyl)-7-methoxy-1,4-dihydrochromeno|4,3-clpyrazol-8-yl)phenyl)amino)-4-oxobutanamido)butyl)-7,13-dimethyl-6,9,12,15-tetraoxo-16-((R)-2-(2-(4,7,10-tris(carboxymethyl)-1,4,7,10-tetraazacyclododecan-1-yl)acetamido)propanamido)-5,8,11,14-tetraazanonadecanedioic acid] ({DOTA}-[dA][dE][dA][dK]([Suc-X1])[dA][dE][dA]-NH2)	10 to 100
COc1cc2c(cc1-c1cccc(NC(=O)C3OC(CNC(=O)CN4CCN(CC(=O)O)CCN(CC(=O)O)CCN(CC(=O)O)CC4)C(O)C(O)C3O)c1)-c1c(c(C(=O)N3CCOCC3(C)C)nn1-c1cc(Cl)cc(Cl)c1)CO2 [Compound 34, 2,2′,2″-(10-(2-((((2S,3R,4R,5R,6S)-6-((3-(1-(3,5-dichlorophenyl)-3-(3,3dimethylmorpholine-4-carbonyl)-7-methoxy-1,4-dihydrochromeno|4,3-c]pyrazol-8-yl)phenyl)carbamoyl)-3,4,5-trihydroxytetrahydro-2H-pyran-2-yl)methyl)amino)-2-oxoethyl)-1,4,7,10-tetraazacyclododecane-1,4,7-triyl)triacetic acid]	10 to 100
COc1cc2c(cc1-c1cncc(NC(=O)CNC(=O)[C@H](CCC(=O)NC[C@H](O)[C@@H](O)[C@H](O)[C@H](O)CO)NC(=O)CN3CCN(CC(=O)O)CCN(CC(=O)O)CCN(CC(=O)O)CC3)c1)-c1c(c(C(=O)N3CCOCC3(C)C)nn1-c1cc(Cl)cc(Cl)c1)CO2 [Compound 56, 2,2′,2″-(10-(2-(((S)-1-((2-((5-(1-(3,5-dichlorophenyl)-3-(3,3-dimethylmorpholine-4-carbonyl)-7-methoxy-1,4-dihydrochromeno[4,3-c]pyrazol-8-yl)pyridin-3-yl)amino)-2-oxoethyl)amino)-1,5-dioxo-5-(((2S,3R,4R,5R)-2,3,4,5,6-pentahydroxyhexyl)amino)pentan-2-yl)amino)-2-oxoethyl)-1,4,7,10-tetraazacyclododecane-1,4,7-triyl)triacetic acid--2,2,2-trifluoroacetic acid (1/1)]	10 to 100

Next, values leading:

EC50 [nM]	SMILES
10 to 100	COc1cc2c(cc1-c1cncc(NC(=O)CNC(=O)CC[C@@H](NC(=O)CN3CCN(CC(=O)O)CCN(CC(=O)O)CCN(CC(=O)O)CC3)C(=O)O)c1)-c1c(c(C(=O)N3CCOCC3(C)C)nn1-c1cc(F)cc(F)c1)CO2 [Compound 61, (R)-2,2′,2″-(10-(2-((1-carboxy-4-((2-((5-(1-(3,5-difluorophenyl)-3-(3,3-dimethylmorpholine-4-carbonyl)-7-methoxy-1,4-dihydrochromeno[4,3-c]pyrazol-8-yl)pyridin-3-yl)amino)-2-oxoethyl)amino)-4-oxobutyl)amino)-2-oxoethyl)-1,4,7,10-tetraazacyclododecane-1,4,7-triyl)triacetic acid]
< 10	COc1cc2c(cc1-c1cccc(NC(=O)NCCNc3c(NCCNC(=O)CN4CCN(CC(=O)O)CCN(CC(=O)O)CCN(CC(=O)O)CC4)c(=O)c3=O)c1)-c1c(c(C(=O)N3CCOCC3(C)C)nn1-c1cc(Cl)cc(Cl)c1)CO2 [Compound 24A, indium (III) 2,2′,2″-(10-(2-((2-((2-((2-(3-(3-(1-(3,5-dichlorophenyl)-3-(3,3-dimethylmorpholine-4-carbonyl)-7-methoxy-1,4-dihydrochromeno[4,3-c]pyrazol-8-yl)phenyl)ureido)ethyl)amino)-3,4-dioxocyclobut-1-en-1-yl)amino)ethyl)amino)-2-oxoethyl)-1,4,7,10-tetraazacyclododecane-1,4,7-triyl)triacetate]
10 to 100	COc1cc2c(cc1-c1cccc(NC(=O)CCC(=O)NCCCC[C@@H](NC(=O)[C@@H](CCC(=O)O)NC(=O)[C@@H](CCC(=O)O)NC(=O)[C@@H](CCC(=O)O)NC(=O)[C@@H](CCC(=O)O)NC(=O)[C@@H](C)NC(=O)CN3CCN(CC(=O)O)CCN(CC(=O)O)CCN(CC(=O)O)CC3)C(=O)N[C@H](C)C(N)=O)c1)-c1c(c(C(=O)N3CCOCC3(C)C)nn1-c1cc(Cl)cc(Cl)c1)CO2 [Compound 90, 2,2′,2″-(10-((4R,7R,10R,13R,16R,19R)-19-(((R)-1-amino-1-oxopropan-2yl)carbamoyl)-7,10,13,16-tetrakis(2-carboxyethyl)-28-((3-(1-(3,5-dichlorophenyl)-3-(3,3-dimethylmorpholine-4-carbonyl)-7-methoxy-1,4-dihydrochromeno|4,3-clpyrazol-8-yl)phenyl)amino)-4-methyl-2,5,8,11,14,17,25,28-octaoxo-3,6,9,12,15,18,24-heptaazaoctacosyl)-1,4,7,10-tetraazacyclododecane-1,4,7-triyl)triacetic acid] ({DOTA}-[dA][dE][dE][dE][dE][dK]([Suc-X1])[dA]-NH2)
10 to 100	COc1cc2c(cc1-c1cccc(NC(=O)C3CCN(C(=O)CN4CCN(CC(=O)O)CCN(CC(=O)O)CCN(CC(=O)O)CC4)CC3)c1)-c1c(c(C(=O)N3CCOCC3(C)C)nn1-c1cc(Cl)cc(Cl)c1)CO2 [Compound 9, 2,2′,2″-(10-(2-(4-((3-(1-(3,5-dichlorophenyl)-3-(3,3-dimethylmorpholine-4-carbonyl)-7-methoxy-1,4-dihydrochromeno[4,3-c]pyrazol-8-yl)phenyl)carbamoyl)piperidin-1-yl)-2-oxoethyl)-1,4,7,10-tetraazacyclododecane-1,4,7-triyl)triacetic acid]
< 10	COc1cc2c(cc1-c1cccc(NC(=O)NCCOCCOCCOCCOCCOCCOCCNC(=O)CN3CCN(CC(=O)O)CCN(CC(=O)O)CCN(CC(=O)O)CC3)c1)-c1c(c(C(=O)N(C)C(C)(C)C)nn1-c1cc(Cl)cc(Cl)c1)CO2 [Compound 1, 2,2′,2″-(10-(1-((3-(3-(tert-butyl(methyl)carbamoyl)-1-(3,5-dichlorophenyl)-7-methoxy-1,4-dihydrochromeno[4,3-c]pyrazol-8-yl)phenyl)amino)-1,24-dioxo-5,8,11,14,17,20-hexaoxa-2,23-diazapentacosan-25-yl)-1,4,7,10-tetraazacyclododecane-1,4,7-triyl)triacetic acid]
> 100	COc1cc2c(cc1-c1cccc(NC(=O)C(CNC(=O)CCNC(=O)CN3CCN(CC(=O)O)CCN(CC(=O)O)CCN(CC(=O)O)CC3)CNC(=O)CCNC(=O)CN3CCN(CC(=O)O)CCN(CC(=O)O)CCN(CC(=O)O)CC3)c1)-c1c(c(C(=O)N3CCOCC3(C)C)nn1-c1cc(Cl)cc(Cl)c1)CO2 [Compound 35]
10 to 100	COc1cc2c(cc1-c1cccc(NC(=O)C[C@H](O)C[C@H](O)CCNC(=O)CN3CCN(CC(=O)O)CCN(CC(=O)O)CCN(CC(=O)O)CC3)c1)-c1c(c(C(=O)N3CCOCC3(C)C)nn1-c1cc(Cl)cc(Cl)c1)CO2 [Compound 38]
10 to 100	COc1cc2c(cc1-c1cncc(OCCOCCOCCOCCOCCNC(=O)[C@H](CS(=O)(=O)O)NC(=O)CN3CCN(CC(=O)O)CCN(CC(=O)O)CCN(CC(=O)O)CC3)c1)-c1c(c(C(=O)N3CCCN(C(=O)C4CCC4)CC3)nn1-c1cccs1)CO2 [Compound 76, (R)-2,2′,2″-(10-(20-((5-(3-(4-(cyclobutanecarbonyl)-1,4-diazepane-1carbonyl)-7-methoxy-1-(thiophen-2-yl)-1,4-dihydrochromeno[4,3-c]pyrazol-8-yl)pyridin-3-yl)oxy)-2,5-dioxo-4-(sulfomethyl)-9,12,15,18-tetraoxa-3,6-diazaicosyl)-1,4,7,10-tetraazacyclododecane-1,4,7-triyl)triacetic acid]

same assay, conditions: hFSHR Agonist cAMP EC50, CHO-K1 human FSHR cells, 30 minutes at 37° C., HTRF cAMP kit

SMILES	EC50 [nM]
COc1cc2c(cc1-c1cccc(NC(=O)CCOCCOCCOCCOCCNC(=O)CN3CCN(CC(=O)O)CCN(CC(=O)O)CCN(CC(=O)O)CC3)c1)-c1c(c(C(=O)N3CCOCC3(C)C)nn1-c1cc(Cl)cc(Cl)c1)CO2 [Compound 17B]	< 10
